Test system: patients with treatment-resistant major depressive disorder
Test: Clinical trial in treatment-resistant major depressive disorder: symptom scales (MADRS, PGI-S, PGI-I, C-SSRS, BPRS)
Format: in vivo, human
Settings: for PGI-I: 1, Very much improved, 2, Much improved, to 7, Very much worse; for MADRS suicidal thoughts item: ranges from 0 to 6; for BPRS Unusual thought content / BPRS Somatic concern / BPRS Tension / BPRS Guilt feelings / BPRS Depressive Mood / BPRS Anxiety: scale of 1-7; for PGI-S: 1, Normal, not at all ill to 7, Extremely ill; for MADRS: score 0 to 60; for BPRS (total): 18 symptoms each rated 1-7; for C-SSRS Suicidal Ideation: whether any of the suicidal ideation items were present
Description: A clinical trial was performed in which 5-MeO-DMT free base (purity not less than 99%) was administered to patients with treatment-resistant major depressive disorder (TRD). The objectives of the study were to assess the safety and tolerability, the dose-related psychedelic effects and the effects on various measures of depression of single-day dosing of 5-MeO-DMT. The trial was reviewed and approved by the relevant national competent authority and local medical ethics committee. Patients recruited into the trial had to meet the Diagnostic and Statistical Manual of Mental Disorders-Fifth Edition (DSM-5) diagnostic criteria for single-episode or recurrent major depressive disorder and had to be treatment-resistant, both aspects as evaluated by a psychiatrist or registered psychologist. Patients who were using any psychoactive medication or substance (such as anti-depressive medication) had to discontinue such medication or substance and had to observe a wash-out period before the 5-MeO-DMT administration. On the administration day, a single dose of 12 mg 5-MeO-DMT was administered to the patients via a single inhalation as described in Example 1A. Patients were closely monitored for 3.5 hours after administration, with additional follow-up visits 1 day and 7 days after dosing. Various safety related measures (e.g., adverse event reporting, safety laboratory analyses, vital signs, electrocardiogram (ECG), Clinician Administered Dissociative States Scale (CADSS), Psychomotor Vigilance Test (PVT), Digit Symbol Substitution Test (DSST)), measures of the intensity of the psychedelic effects (e.g., Peak Psychedelic Experience Questionnaire (PPEQ), Altered States of Consciousness (ASC) Questionnaire, Mystical Experience Questionnaire (MEQ30), subjective description of the psychedelic experience), measures of depression severity (Montgomery-Åsberg Depression Rating Scale (MADRS), Patient's Global Impression of Severity scale (PGI-S), Patient's Global Impression of Improvement scale (PGI-I)), and additional psychological measures (e.g., Columbia-Suicide Severity Rating Scale (C-SSRS), Brief Psychiatric Rating Scale (BPRS)) were recorded at different time points. Psychological support via a psychologist and/or psychiatrist was available to the patients throughout the study, but no specific psychotherapy was applied, and no additional psychoactive medication was provided.
Two patients with major depressive disorder diagnosed by a psychiatrist according to DSM-5 diagnostic criteria were recruited into the study (Example 2, Table 1). The patients were considered treatment-resistant because they had not shown adequate improvement to at least two adequate courses of pharmacological therapy in the current episode of depression.

[1] = Patient 1, 2 hours after 12 mg inhaled
[2] = Patient 1, 2 hours after 12 mg inhaled, baseline 1
[3] = Patient 1, 2 hours after 12 mg inhaled, baseline 5
[4] = Patient 1, 1 day after 12 mg inhaled
[5] = Patient 1, 1 day after 12 mg inhaled, baseline 1
[6] = Patient 1, 1 day after 12 mg inhaled, baseline 5
[7] = Patient 1, 7 days after 12 mg inhaled
[8] = Patient 1, 7 days after 12 mg inhaled, baseline 1
[9] = Patient 1, 7 days after 12 mg inhaled, baseline 5
[10] = Patient 2, 2 hours after 12 mg inhaled
[11] = Patient 2, 2 hours after 12 mg inhaled, baseline 5
[12] = Patient 2, 1 day after 12 mg inhaled
[13] = Patient 2, 1 day after 12 mg inhaled, baseline 5
[14] = Patient 2, 7 days after 12 mg inhaled
[15] = Patient 2, 7 days after 12 mg inhaled, baseline 5
[16] = both patients, all assessment time points after 12 mg inhaled
[17] = single dose of 12 mg via inhalation

SMILES: COc1ccc2[nH]cc(CCN(C)C)c2c1 [5-MeO-DMT, 5-methoxy-N,N-dimethyltryptamine]
- % MADRS change vs. baseline [1]: −68%
- PGI-I [1]: 1
- MADRS suicidal thoughts item [2]: 0
- BPRS Unusual thought content [2]: 1
- BPRS Somatic concern (Patient 1, 2 hours after 12 mg inhaled, baseline 3): 2
- BPRS Tension (Patient 1, 2 hours after 12 mg inhaled, baseline 4): 3
- PGI-S [3]: 1
- BPRS Guilt feelings [3]: 1
- BPRS Depressive Mood (Patient 1, 2 hours after 12 mg inhaled, baseline 6): 2
- BPRS Anxiety (Patient 1, 2 hours after 12 mg inhaled, baseline 7): 2
- MADRS (Patient 1, 2 hours after 12 mg inhaled, baseline 31): 10
- BPRS (total) (Patient 1, 2 hours after 12 mg inhaled, baseline 42): 27
- C-SSRS Suicidal Ideation (Patient 1, 2 hours after 12 mg inhaled, baseline Yes): No
- % MADRS change vs. baseline [4]: −74%
- PGI-I [4]: 1
- MADRS suicidal thoughts item [5]: 0
- BPRS Unusual thought content [5]: 1
- BPRS Somatic concern (Patient 1, 1 day after 12 mg inhaled, baseline 3): 1
- BPRS Tension (Patient 1, 1 day after 12 mg inhaled, baseline 4): 1
- PGI-S [6]: 1
- BPRS Guilt feelings [6]: 1
- BPRS Depressive Mood (Patient 1, 1 day after 12 mg inhaled, baseline 6): 1
- BPRS Anxiety (Patient 1, 1 day after 12 mg inhaled, baseline 7): 1
- MADRS (Patient 1, 1 day after 12 mg inhaled, baseline 31): 8
- BPRS (total) (Patient 1, 1 day after 12 mg inhaled, baseline 42): 18
- C-SSRS Suicidal Ideation (Patient 1, 1 day after 12 mg inhaled, baseline Yes): No
- % MADRS change vs. baseline [7]: −90%
- PGI-I [7]: 1
- MADRS suicidal thoughts item [8]: 0
- BPRS Unusual thought content [8]: 1
- BPRS Somatic concern (Patient 1, 7 days after 12 mg inhaled, baseline 3): 1
- BPRS Tension (Patient 1, 7 days after 12 mg inhaled, baseline 4): 1
- PGI-S [9]: 1
- BPRS Guilt feelings [9]: 1
- BPRS Depressive Mood (Patient 1, 7 days after 12 mg inhaled, baseline 6): 1
- BPRS Anxiety (Patient 1, 7 days after 12 mg inhaled, baseline 7): 1
- MADRS (Patient 1, 7 days after 12 mg inhaled, baseline 31): 3
- BPRS (total) (Patient 1, 7 days after 12 mg inhaled, baseline 42): 18
- C-SSRS Suicidal Ideation (Patient 1, 7 days after 12 mg inhaled, baseline Yes): No
- % MADRS change vs. baseline [10]: −73%
- PGI-I [10]: 2
- MADRS suicidal thoughts item (Patient 2, 2 hours after 12 mg inhaled, baseline 1): 0
- BPRS Tension (Patient 2, 2 hours after 12 mg inhaled, baseline 3): 1
- BPRS Somatic concern (Patient 2, 2 hours after 12 mg inhaled, baseline 4): 1
- PGI-S [11]: 1
- BPRS Anxiety [11]: 2
- BPRS Depressive Mood [11]: 3
- BPRS Guilt feelings [11]: 1
- BPRS Unusual thought content (Patient 2, 2 hours after 12 mg inhaled, baseline 6): 1
- MADRS (Patient 2, 2 hours after 12 mg inhaled, baseline 33): 9
- BPRS (total) (Patient 2, 2 hours after 12 mg inhaled, baseline 45): 26
- C-SSRS Suicidal Ideation (Patient 2, 2 hours after 12 mg inhaled, baseline No): No
- % MADRS change vs. baseline [12]: −85%
- PGI-I [12]: 2
- MADRS suicidal thoughts item (Patient 2, 1 day after 12 mg inhaled, baseline 1): 1
- BPRS Tension (Patient 2, 1 day after 12 mg inhaled, baseline 3): 1
- BPRS Somatic concern (Patient 2, 1 day after 12 mg inhaled, baseline 4): 1
- PGI-S [13]: 1
- BPRS Anxiety [13]: 1
- BPRS Depressive Mood [13]: 1
- BPRS Guilt feelings [13]: 1
- BPRS Unusual thought content (Patient 2, 1 day after 12 mg inhaled, baseline 6): 1
- MADRS (Patient 2, 1 day after 12 mg inhaled, baseline 33): 5
- BPRS (total) (Patient 2, 1 day after 12 mg inhaled, baseline 45): 19
- C-SSRS Suicidal Ideation (Patient 2, 1 day after 12 mg inhaled, baseline No): No
- % MADRS change vs. baseline [14]: −85%
- PGI-I [14]: 2
- MADRS suicidal thoughts item (Patient 2, 7 days after 12 mg inhaled, baseline 1): 0
- BPRS Tension (Patient 2, 7 days after 12 mg inhaled, baseline 3): 1
- BPRS Somatic concern (Patient 2, 7 days after 12 mg inhaled, baseline 4): 1
- PGI-S [15]: 1
- BPRS Anxiety [15]: 1
- BPRS Depressive Mood [15]: 1
- BPRS Guilt feelings [15]: 1
- BPRS Unusual thought content (Patient 2, 7 days after 12 mg inhaled, baseline 6): 1
- MADRS (Patient 2, 7 days after 12 mg inhaled, baseline 33): 5
- BPRS (total) (Patient 2, 7 days after 12 mg inhaled, baseline 45): 18
- C-SSRS Suicidal Ideation (Patient 2, 7 days after 12 mg inhaled, baseline No): No
- standard criteria for MADRS remission (MADRS total score equal or less than 10) [16]: fulfilled
- standard criteria for MADRS response (at least 50% improvement from baseline) [16]: fulfilled
- time to clinical remission after a single 5-MeO-DMT administration [17]: ≤ 2 h
- time to clinical response after 5-MeO-DMT administration [17]: ≤ 2 h

From US20240307350A1, “5-METHOXY-N,N-DIMETHYLTRYPTAMINE (5-MEO-DMT) FOR TREATING DEPRESSION” (GH RESEARCH IRELAND LIMITED, priority 2019, published 2024)
